Source: patent publication US12568972B2, “Pyridazinol compounds and derivatives, preparation methods, herbicidal compositions and applications thereof” (Qingdao Kingagroot Chemical Compound Co., Ltd., priority 2018, dated 2026)

Assays:
Experiment in all cases: Post-emergence test, weed control effect
Assay type in all cases: in vivo
Conditions in all cases: after 3 weeks
Veronica polita = test system: Veronica polita
How it was run: (§1)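 Greenhouse pots, soil-sown, 0.5-2 cm cover; foliar spray at 2-3 leaf stage (2-3 wk post-sowing); cpd in acetone + Tween-80, water-diluted, + 80% veg. oil methyl ester synergist 1500 g/ha; 3 wk culture; fresh-wt inhibition graded 0-10.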

Chenopodiaceae = test system: Chenopodiaceae
How it was run: as §1

Amaranthus retroflexus = test system: Amaranthus retroflexus
How it was run: as §1

Rorippa indica = test system: Rorippa indica
How it was run: as §1

O=C(Oc1cc(C(F)(F)F)nnc1-c1ccc(F)cc1)C(F)(F)C(F)(F)C(F)(F)F [Compound 1-25]
10: weed control effect, Veronica polita (activity level) (Veronica polita; Dose 3000 g/ha) | weed control effect, Chenopodiaceae (activity level) (Chenopodiaceae; Dose 3000 g/ha) | weed control effect, Amaranthus retroflexus (activity level) (Amaranthus retroflexus; Dose 3000 g/ha) | weed control effect, Rorippa indica (activity level) (Rorippa indica; Dose 3000 g/ha)

Oc1cc(C(F)(F)F)nnc1-c1cccc(F)c1 [Compound 736]
10: weed control effect (activity level), Veronica polita (Veronica polita; dose 1000 g/ha) | weed control effect (activity level), Chenopodiaceae (Chenopodiaceae; dose 1000 g/ha) | weed control effect (activity level), Amaranthus retroflexus (Amaranthus retroflexus; dose 1000 g/ha) | weed control effect (activity level), Rorippa indica (Rorippa indica; dose 1000 g/ha)

Cc1cc(C)c(-c2nnc(C(F)(F)F)cc2O)o1 [Compound 439]
10: weed control effect (activity level), Veronica polita (Veronica polita; Dose 3000 g/ha) | weed control effect (activity level), Chenopodiaceae (Chenopodiaceae; Dose 3000 g/ha) | weed control effect (activity level), Amaranthus retroflexus (Amaranthus retroflexus; Dose 3000 g/ha) | weed control effect (activity level), Rorippa indica (Rorippa indica; Dose 3000 g/ha)

COc1c(Cl)ccc(-c2nnc(C(F)(F)F)cc2O)c1F [Compound 741]
10: weed control effect (activity level), Veronica polita (Veronica polita; Dose 3000 g/ha) | weed control effect (activity level), Chenopodiaceae (Chenopodiaceae; Dose 3000 g/ha) | weed control effect (activity level), Amaranthus retroflexus (Amaranthus retroflexus; Dose 3000 g/ha) | weed control effect (activity level), Rorippa indica (Rorippa indica; Dose 3000 g/ha)

CC(C)COC(=S)Oc1cc(C(F)(F)F)nnc1-c1ccc(Cl)cc1Cl [Compound 1-158]
10: weed control effect, Veronica polita (activity level) (Veronica polita; Dose 3000 g/ha) | weed control effect, Chenopodiaceae (activity level) (Chenopodiaceae; Dose 3000 g/ha) | weed control effect, Amaranthus retroflexus (activity level) (Amaranthus retroflexus; Dose 3000 g/ha) | weed control effect, Rorippa indica (activity level) (Rorippa indica; Dose 3000 g/ha)

CCCC(C)CC/C(C)=N\Oc1cc(C(F)(F)F)nnc1-c1ccccc1 (stereo not drawn) [Compound 1-181]
10: weed control effect, Veronica polita (activity level) (Veronica polita; Dose 3000 g/ha) | weed control effect, Chenopodiaceae (activity level) (Chenopodiaceae; Dose 3000 g/ha) | weed control effect, Amaranthus retroflexus (activity level) (Amaranthus retroflexus; Dose 3000 g/ha) | weed control effect, Rorippa indica (activity level) (Rorippa indica; Dose 3000 g/ha)

Oc1cc(C(F)(F)F)nnc1-c1cc(F)ccc1F [Compound 34]
10: weed control effect (activity level), Veronica polita (Veronica polita; dose 1000 g/ha) | weed control effect (activity level), Chenopodiaceae (Chenopodiaceae; dose 1000 g/ha) | weed control effect (activity level), Amaranthus retroflexus (Amaranthus retroflexus; dose 1000 g/ha) | weed control effect (activity level), Rorippa indica (Rorippa indica; dose 1000 g/ha)

Oc1cc(C(F)(F)F)nnc1-c1c(F)cccc1F [Compound 36]
10: weed control effect (activity level), Veronica polita (Veronica polita; dose 1000 g/ha) | weed control effect (activity level), Chenopodiaceae (Chenopodiaceae; dose 1000 g/ha) | weed control effect (activity level), Amaranthus retroflexus (Amaranthus retroflexus; dose 1000 g/ha) | weed control effect (activity level), Rorippa indica (Rorippa indica; dose 1000 g/ha)

O=C(Oc1cc(C(F)(F)F)nnc1-c1ccc(C(F)(F)F)cc1)c1cccs1 [Compound 1-106]
10: weed control effect, Veronica polita (activity level) (Veronica polita; Dose 3000 g/ha) | weed control effect, Chenopodiaceae (activity level) (Chenopodiaceae; Dose 3000 g/ha) | weed control effect, Amaranthus retroflexus (activity level) (Amaranthus retroflexus; Dose 3000 g/ha) | weed control effect, Rorippa indica (activity level) (Rorippa indica; Dose 3000 g/ha)

COc1cccc(-c2nnc(C(F)(F)F)cc2O)c1F [Compound 68]
10: weed control effect (activity level), Veronica polita (Veronica polita; dose 1000 g/ha) | weed control effect (activity level), Chenopodiaceae (Chenopodiaceae; dose 1000 g/ha) | weed control effect (activity level), Amaranthus retroflexus (Amaranthus retroflexus; dose 1000 g/ha) | weed control effect (activity level), Rorippa indica (Rorippa indica; dose 1000 g/ha)

Fc1ccc(-c2nnc(C(F)(F)F)cc2OCc2ccccc2)cc1F [Compound 1-210]
10: weed control effect, Veronica polita (activity level) (Veronica polita; Dose 3000 g/ha) | weed control effect, Chenopodiaceae (activity level) (Chenopodiaceae; Dose 3000 g/ha) | weed control effect, Amaranthus retroflexus (activity level) (Amaranthus retroflexus; Dose 3000 g/ha) | weed control effect, Rorippa indica (activity level) (Rorippa indica; Dose 3000 g/ha)

Cc1ccc(-c2nnc(C(F)(F)F)cc2OC(=S)OCCC(C)C)c([N+](=O)[O-])c1 [Compound 1-159]
10: weed control effect, Veronica polita (activity level) (Veronica polita; Dose 3000 g/ha) | weed control effect, Chenopodiaceae (activity level) (Chenopodiaceae; Dose 3000 g/ha) | weed control effect, Amaranthus retroflexus (activity level) (Amaranthus retroflexus; Dose 3000 g/ha) | weed control effect, Rorippa indica (activity level) (Rorippa indica; Dose 3000 g/ha)

Oc1cc(C(F)(F)F)nnc1-c1cncc(Cl)c1 [Compound 770]
10: weed control effect (activity level), Veronica polita (Veronica polita; Dose 3000 g/ha) | weed control effect (activity level), Chenopodiaceae (Chenopodiaceae; Dose 3000 g/ha) | weed control effect (activity level), Amaranthus retroflexus (Amaranthus retroflexus; Dose 3000 g/ha) | weed control effect (activity level), Rorippa indica (Rorippa indica; Dose 3000 g/ha)

Oc1cc(C(F)(F)F)nnc1-c1cnc(Cl)c(Cl)c1 [Compound 994]
10: weed control effect (activity level), Veronica polita (Veronica polita; Dose 3000 g/ha) | weed control effect (activity level), Chenopodiaceae (Chenopodiaceae; Dose 3000 g/ha) | weed control effect (activity level), Amaranthus retroflexus (Amaranthus retroflexus; Dose 3000 g/ha) | weed control effect (activity level), Rorippa indica (Rorippa indica; Dose 3000 g/ha)

CCCCOC(=O)Oc1cc(C(F)(F)F)nnc1-c1ccc(F)cc1 [Compound 1-29]
10: weed control effect, Veronica polita (activity level) (Veronica polita; Dose 3000 g/ha) | weed control effect, Chenopodiaceae (activity level) (Chenopodiaceae; Dose 3000 g/ha) | weed control effect, Amaranthus retroflexus (activity level) (Amaranthus retroflexus; Dose 3000 g/ha) | weed control effect, Rorippa indica (activity level) (Rorippa indica; Dose 3000 g/ha)

O=S(=O)(Oc1cc(C(F)(F)F)nnc1-c1ccc(F)c(F)c1)c1cc(F)c(Br)cc1F [Compound 1-138]
10: weed control effect, Veronica polita (activity level) (Veronica polita; Dose 3000 g/ha) | weed control effect, Chenopodiaceae (activity level) (Chenopodiaceae; Dose 3000 g/ha) | weed control effect, Amaranthus retroflexus (activity level) (Amaranthus retroflexus; Dose 3000 g/ha) | weed control effect, Rorippa indica (activity level) (Rorippa indica; Dose 3000 g/ha)

O=[N+]([O-])c1ccc(F)c(-c2nnc(C(F)(F)F)cc2O)c1 [Compound 61]
10: weed control effect (activity level), Veronica polita (Veronica polita; dose 1000 g/ha) | weed control effect (activity level), Chenopodiaceae (Chenopodiaceae; dose 1000 g/ha) | weed control effect (activity level), Amaranthus retroflexus (Amaranthus retroflexus; dose 1000 g/ha) | weed control effect (activity level), Rorippa indica (Rorippa indica; dose 1000 g/ha)

Oc1cc(C(F)(F)F)nnc1-c1cncc(C2CC2)c1 [Compound 214]
10: weed control effect (activity level), Veronica polita (Veronica polita; dose 2000 g/ha) | weed control effect (activity level), Chenopodiaceae (Chenopodiaceae; dose 2000 g/ha) | weed control effect (activity level), Amaranthus retroflexus (Amaranthus retroflexus; dose 2000 g/ha) | weed control effect (activity level), Rorippa indica (Rorippa indica; dose 2000 g/ha)
